Experiment [1] deals with PQ-induced writhing in mice. Nature of the experiment: animal or person. It counts as in vivo, mouse (male CF1). The conditions noted are these: Mus musculus, sc, read-out: ED50, antagonism of PQ-induced writhing in mice. Background: In writhing tests, fewer writhes than in controls are read as antinociception.
In experiment [2] the target is T1, kappa opioid receptor (U-50,488H analgesia) (Mus musculus, UniProt P33534).
T1 construct: Male CF1 mice (fasted 17-21 hours); from tissue; host or cells: live male CF1 mice (in vivo, whole animal; endogenous receptor)
T1 sequence (P33534 whole entry): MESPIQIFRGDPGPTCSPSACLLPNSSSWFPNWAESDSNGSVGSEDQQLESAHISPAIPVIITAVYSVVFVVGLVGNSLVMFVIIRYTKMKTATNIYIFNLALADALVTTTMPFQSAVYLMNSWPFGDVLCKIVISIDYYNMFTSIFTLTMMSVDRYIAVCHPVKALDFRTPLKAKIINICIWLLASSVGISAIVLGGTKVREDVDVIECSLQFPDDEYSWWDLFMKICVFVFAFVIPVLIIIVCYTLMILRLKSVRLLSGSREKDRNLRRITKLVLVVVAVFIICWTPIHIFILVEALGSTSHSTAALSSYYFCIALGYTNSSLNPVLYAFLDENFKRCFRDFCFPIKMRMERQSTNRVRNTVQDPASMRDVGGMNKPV
Nature of the experiment: in vivo. On the set-up: species or system mouse (male CF1). The conditions noted are these: sc, read-out: ED50, antagonism of U-50,488H analgesia in PQW test (kappa antagonist potency).

Experiment [3] deals with T2, mu opioid receptor (morphine analgesia) (Mus musculus, UniProt P42866).
T2 construct: Male CF1 mice (fasted 17-21 hours); from tissue; host or cells: live male CF1 mice (in vivo, whole animal; endogenous receptor)
T2 sequence (P42866 whole entry): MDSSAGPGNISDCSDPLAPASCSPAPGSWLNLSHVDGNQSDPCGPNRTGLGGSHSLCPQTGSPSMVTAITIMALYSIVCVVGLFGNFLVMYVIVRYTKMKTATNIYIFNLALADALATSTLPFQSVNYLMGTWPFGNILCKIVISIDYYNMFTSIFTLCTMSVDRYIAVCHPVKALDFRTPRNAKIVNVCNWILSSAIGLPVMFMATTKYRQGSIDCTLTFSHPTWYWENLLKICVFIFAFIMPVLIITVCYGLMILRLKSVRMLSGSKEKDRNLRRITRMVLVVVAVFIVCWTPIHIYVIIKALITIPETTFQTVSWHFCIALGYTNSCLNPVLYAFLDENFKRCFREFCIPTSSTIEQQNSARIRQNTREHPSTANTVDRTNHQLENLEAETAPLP
Kind of experiment: antagonism of morphine analgesia in PQW test (mu antagonist potency). The format is in vivo, mouse (male CF1). The following applies: sc, read-out: ED50, antagonism of morphine analgesia in PQW test (mu antagonist potency).

Another experiment concerns kappa receptor. The following applies: cited from earlier work.
Experiment [4] has as its system animal models of hemorrhagic, septic, and neurogenic shock. The following applies: in vivo; cited from earlier work.
The test system of the next experiment is food intake. The following applies: in vivo; cited from earlier work.
Another experiment deals with spinal cord injury. The following applies: rabbit, versus WIN 44,441-3; cited from earlier work.
Experiment [5] has as its system μ (mu), κ (kappa) and δ (delta) opioid receptors. The conditions noted are these: established opioid antagonists; cited from earlier work.
The test system of a further experiment is feeding. The following applies: in vivo; cited from earlier work.

Where only a bound is given, the exact number is not on record here.

Consider twelve compounds from patent US4767764A, “Alkoxyalkyl and alkylmercaptoalkyl substituted bridged benzofuroisoquinolines having opioid antagonist and/or appetite-controlling properties” (E. I. Du Pont de Nemours and Company, priority 1986, dated 1988).

The term ED50 denotes the midpoint of the dose-response relation. In the case of `COCC1CC2CCC13CN(CC1CC1)CCC31c3cccc(O)c3OC21` (stereo not drawn) [Example 6, 3-Cyclopropylmethyl-5-methoxymethyl-1,2,3,4,5,6,7,7a-octahydro-4a,7-ethanobenzofuro[3,2-e]isoquinolin-9-ol], the ED50 is greater than 81 mg/kg in experiment [1], 0.007 mg/kg in experiment [2] and 0.008 mg/kg in experiment [3].
`CN1CC[C@]2(C)c3cc(O)ccc3C[C@H]1C2(C)CCC(=O)CCC1CCCC1.CS(=O)(=O)O` (stereo partly drawn) [WIN 44,441-3]: in the experiment with kappa receptor, the “kappa receptor activity/selectivity in words” value was “enhanced activity at the kappa receptor”.
As to `Oc1cccc2c1OC1C3CCC4(CN(CC5CC5)CCC214)C(COCCCc1ccccc1)C3` (stereo not drawn) [Example 7, 3-cyclopropylmethyl-5-(3-phenyl-n-propoxymethyl)-1,2,3,4,5,6,7,7a-octahydro-4a,7-ethanolbenzofuro[3,2-e]isoquinolin-9-ol], the ED50 was greater than 81 mg/kg in experiment [1], 0.24 mg/kg in [2] and 0.29 mg/kg in [3].
For `CCCN1CCC23c4cccc(O)c4OC2C2CCC3(C1)C(COCC)C2` (stereo not drawn) [Example 2, 5-Ethoxymethyl-3-n-propyl-1,2,3,4,5,6,7,7a-octahydro-4a,7-ethanobenzofuro[3,2-e]isoquinolin-9-ol] the same measures were greater than 81 mg/kg, 0.012 mg/kg and 0.024 mg/kg.
The corresponding values for `CCC1C2Cc3ccc(O)cc3C1(CC)CCN2Cc1ccoc1` (stereo not drawn) [MR 2266, reference compound] are greater than 81 mg/kg, 0.115 mg/kg and 0.109 mg/kg.
For `CCCOCC1CC2C=CC13CN(CCC)CCC31c3cccc(O)c3OC21` (stereo not drawn) [Example 4, 5-(n-propoxymethyl)-3-n-propyl-1,2,3,4,5,6,7,7a-octahydro-4a,7-ethenobenzofuro[3,2-e]isoquinolin-9-ol] the same measures were greater than 81 mg/kg, 0.05 mg/kg and 0.19 mg/kg.
For the compound `CCCN1CCC23c4cccc(O)c4OC2C2CCC3(C1)C(COC)C2` (stereo not drawn) [Example 1, 5-Methoxymethyl-3-n-propyl-1,2,3,4,5,6,7,7a-octahydro-4a,7-ethanobenzofuro[3,2-e]isoquinolin-9-ol], the ED50 in [1] is greater than 81 mg/kg; in experiment [2], 0.004 mg/kg; in experiment [3], 0.014 mg/kg.
As to `C=CCN1CC[C@]23c4c5ccc(O)c4O[C@H]2C(=O)CC[C@@]3(O)[C@H]1C5` [Naloxone, naloxone], in experiment [4], the “effective doses in shock models versus mu mediated effects” value is given as “several orders of magnitude higher than doses useful in reversing mu mediated effects”; the “improvement of hemodynamic parameters in shock models” value is “improve hemodynamic parameters in a variety of animal models of hemorrhagic, septic, and neurogenic shock”. For the same compound, in experiment [1], the ED50 was greater than 81 mg/kg. Moreover, in the experiment on food intake, the “decrease of food intake” value is recorded as “decrease food intake in several animal species” and the “effective doses for food intake versus mu mediated effects” value is “much larger than those useful in reversing mu mediated effects”. In the experiment on spinal cord injury, the “effectiveness in spinal stroke model” value is given as “less effective than WIN 44,441-3”.
In the case of `O=C1CC[C@@]2(O)[C@H]3Cc4ccc(O)c5c4[C@@]2(CCN3CC2CC2)[C@H]1O5` [Naltrexone, naltrexone], the ED50 in experiment [1] is greater than 81 mg/kg. Also, the “opioid receptor binding in words” value in experiment [5] is “bind to all three types of receptors, with greatest affinity for the mu receptor”. Also, in the experiment on food intake, the “decrease of food intake” value is “decrease food intake in several animal species” and the “effective doses for food intake versus mu mediated effects” value is given as “much larger than those useful in reversing mu mediated effects”.
Consider `CCCOCC1CC2CCC13CN(CCC)CCC31c3cccc(O)c3OC21` (stereo not drawn) [Example 3, 5-(n-Propoxymethyl)-3-n-propyl-1,2,3,4,5,6,7,7a-octahydro-4a,7-ethanobenzofuro[3,2-e]isoquinolin-9-ol], for which the results for the ED50 in experiment [1], in experiment [2] and in experiment [3] were greater than 81 mg/kg, 0.025 mg/kg and 0.06 mg/kg, respectively.
Regarding `CCCN1CCC23c4cccc(O)c4OC2C2CCC3(C1)C(CSC)C2` (stereo not drawn) [Example 5, 5-methylthiomethyl-3-n-propyl-1,2,3,4,5,6,7,7a-octahydro-4a,7-ethanobenzofuro[3,2-e]isoquinolin-9-ol], the ED50 was greater than 81 mg/kg in [1], 0.063 mg/kg in experiment [2] and 0.1 mg/kg in experiment [3].
As for `CC[C@]12CCN(CC3CC3)[C@H](C(=O)c3ccc(O)cc31)[C@@H]2C` [ethylketocyclazocine], the stimulation of feeding result in the experiment on feeding is given as “more potent stimulators of feeding than the mu agonist morphine”.
